Measured values as given in patent US20230045196A1, “METHODS OF CONTROLLING OR PREVENTING INFESTATION OF PEANUT PLANTS BY PHYTOPATHOGENIC MICROORGANISMS” (SYNGENTA CROP PROTECTION AG, priority 2019, published 2023).

System: Cercospora arachidicola
Assay: Peanut field trial, in-furrow soil application at planting, leafspot disease severity
Type: in vivo, Cercospora arachidicola on peanut (Arachis hypogaea)
Details: 63 days after planting, peanut Ga 09b, COMPOUND 1 SC450 200 g AI/ha, Fluopyram SC500 250 g AI/ha
Description: A peanut field trial was carried out in […], Georgia, USA, to evaluate the efficacy of different compounds against the leafspot disease Cercospora arachidicola. Plot borders (peanuts) were planted in early May and left untreated until there was significant leafspot infection on the borders.
The peanuts were then planted in July and treatments applied in-furrow at the same day. The disease occurred mid of September and an assessment on disease severity (% infected area) was done 63 days after planting.
Pest Severity, 63 Days after Planting

O=C(NCCc1ncc(C(F)(F)F)cc1Cl)c1ccccc1C(F)(F)F [Fluopyram]
% efficacy based on pest severity: 52.64%
% efficacy based on pest severity (listed as commercial standard compound 2): 53%
Pest severity (%) (% infected area): 15,A %
